From publication PMC12454639, “Direct disassembly of α-syn preformed fibrils into α-syn monomers by an all-D-peptide” (NPJ Parkinson's Disease, 2025) come the findings set out here.

One series concerns monomeric α-syn. Kind of series: Affinity of negative-control peptide to monomeric α-syn (method not given). The following applies: negative-control peptide kgvgnleyqlwalegk-NH2; method not stated. Format: binding.
For series [1], the system named is α-synA53T–YFP cells (HEK293T).
The test system of series [2] is α-synA53T–YFP (HEK293T cells). The experiment in a line: Seeded intracellular aggregation in α-synA53T–YFP cells. Format: cell-based, human. Conditions: day 3. The text has this: Fig. 5 SVD-1a inhibits seeded α-syn aggregation in cells. To validate the inhibitory effect of SVD-1a in cells, we used the α-synA53T–YFP cell system, which stably expresses human α-syn with the familial A53T mutation fused to YFP in HEK293T cells and enables fluorescence-based detection of aggregates that show up as highly fluorescent spots within the cells, clearly above background, intracellularly after seeding with small α-syn PFF seeds. In order to avoid interference of the peptide with the uptake of small α-syn PFF seeds, we performed a two-step transfection starting with a first transfection of the peptide and a second transfection with PFFs. […] To quantify the number of cells with aggregates in our images and to avoid experimental bias, we used a fully automated algorithm for image analysis. […] One asterisk denotes p values < 0.05 and three asterisks a p value < 0.001. Error bars indicate standard deviation. […] Treatment with increasing concentrations of SVD-1a, here imaged at 25 µM, led to a concentration-dependent reduction in the number of cells with aggregates (H-J). Panels B, E, and H show nuclei stained with Hoechst 33342. Panels C, F, and I show αSynA53T–YFP fluorescence. Panels D, G, and J show merged images. The scale bar in J represents 100 µm and applies to all panels. The viability of the cells was not reduced by transfection with seeds or in SVD-1a, as shown in Supplementary Fig. 15. Confirmation that highly fluorescent aggregates contain α-syn is shown in Supplementary Fig. 14 by co-immunostaining with syn-211 antibody, anti-α-syn (phospho S129) antibody and 5G4 antibody.
A construct encoding full-length A53T-mutated human α-syn fused with YFP at the C-terminus was synthesized and introduced into the pMK–RQ expression vector (GeneArt; Thermo Fisher Scientific, USA). The α-synA53T–YFP construct was subcloned into the pIRESpuro3 vector (Clontech; Takara Bio, JPN) using NheI (5′) and NotI (3′) restriction sites. HEK293T cells (American Type Culture Collection) were cultured in high-glucose Dulbecco’s modified Eagle’s medium (DMEM; Sigma-Aldrich, USA) supplemented with 10% fetal calf serum (Sigma-Aldrich, USA), and 50 units/ml penicillin as well as 50 μg/ml streptomycin (Sigma-Aldrich, USA). Cells were cultured in a humidified atmosphere of 5% CO2 at 37 °C. Cells plated in DMEM were transfected using Lipofectamine 2000 (Invitrogen; Thermo Fisher Scientific, USA). Stable cells were selected in DMEM containing 1 μg/ml puromycin (EMD Millipore, USA). Monoclonal lines were generated by fluorescence-activated cell sorting of a polyclonal cell population in 96-well plates using a MoFlo XDP cell sorter (Beckman Coulter, USA). Finally, the clonal cell line B5 was selected from among 24 clonal cell lines and is referred to as αSynA53T–YFP cells. Peptides were incubated with 1.5% Lipofectamine 2000 in OptiMEM for 2 h at room temperature. […] On day 3 the cells were imaged with an IN Cell Analyzer 6500HS System (Cytiva, USA) using the blue and green fluorescence channel, and analyzed using IN Carta Image Analysis Software (Cytiva, USA) after an algorithm was established to identify intracellular aggregates in living cells. For each condition, we used four wells and took 16 images per well, which were analyzed by a fully automated algorithm to avoid bias. […]

Another series relates to PC12 cells. Format: cell-based. The following applies: 15 µM peptide with 30 nM PFF; n = 4. How it is done: PC12 cells (Leibniz Institute DSMZ, GE) were cultivated on collagen A-coated (Biochrom GmbH, GE) tissue culture flasks in RPMI 1640 medium supplemented with 5% fetal calf serum and 10% horse serum in a 95% humidified atmosphere with 5% CO2 at 37 °C. 10,000 cells per well in a volume of 100 µl were seeded on collagen A-coated 96-well plates (Thermo Fisher Scientific, USA) and were incubated for 24 h at 37 °C and 300 rpm in a thermo cycler. […] In addition, 15 µM of the peptides alone, cell media, buffer without peptides and 0.1% Triton X-100 (cytotoxic compound) served as controls. After further incubation in a 95% humidified atmosphere with 5% CO2 at 37 °C for 24 h, cell viability was measured using the Cell Proliferation Kit I (MTT) (Roche Applied Science, CH) according to the manufacturer’s protocol. The MTT formazan product was quantified by measuring the absorbance at 570 nm corrected by subtraction of the absorbance at 660 nm in a FLUOStar Optima plate reader (BMG Labtech, GE). All results were normalized to untreated cells grown in medium only. Test on significance was performed using one-way ANOVA with Bonferroni post hoc analysis (OriginPro 2020, OriginLab, USA; n = 4).
Test on significance was performed using one-way ANOVA with Bonferroni post hoc analysis: * […], *** p ≤ 0.01. Mean data are shown with ±SD (n = 4). While the cell viability was reduced by 50 % in the presence of 30 nM soluble small α-syn PFF alone, no toxic effect of the compounds on PC12 was observed. […] Thus, similar cell viability saving effects were found for SVD-1a using a 30-fold lower concentration.

Another series relates to small α-syn PFF seeds. Kind of series: Seeded ThT aggregation assay. Format: biochemical. The following applies: discussion statement. How it is done:
The Thioflavin T (ThT) assay is commonly used for the visualization of α-syn fibrilization, since the dye ThT is able to bind to the amyloidogenic cross-β-sheet proportions of fibril structures. Recombinant α-syn was thawed on ice and centrifuged for 30 min at 21,000 × g and 4 °C. The concentration of the supernatant was determined as described previously. Lyophilized D-peptides were thawed at RT for 1 h and dissolved in 500 µl PBS pH 7.4. After centrifugation for 30 min at 21,000 × g the supernatant concentration was determined by UV–vis using the corresponding extinction coefficient at A280. All ThT assay experiments were performed at 37 °C with 15 µM ThT and 0.05% sodium azide (w/v) in PBS pH 7.4 if not otherwise stated. ThT fluorescence was monitored with bottom optics at λex = 448 nm and λem = 482 nm in a fluorescence plate reader with orbital averaging on 3 mm (Clariostar or Polarstar Optima, BMG labtech, GE). Prior to measurement start, 120 µl sample solution was transferred to a non-binding 96-half area well plate with transparent flat bottom (Corning, USA). One borosilicate glass bead (d = 3.0 mm, Hilgenberg, GE) was added to each well for all de novo aggregation assays. For seeded aggregation assays, no bead was used, and samples were incubated under quiescent conditions. Wells that surrounded the sample wells were filled with the same volume of buffer to improve heat distribution. Experiments were performed with five replicates (n = 5) if not otherwise stated.
ThT assay was used for different purposes. […] Lag-time and t½ were calculated as described previously. […] Measurements were taken every 5 min (n = 3).
small α-syn PFF seeds were prepared as described previously with some modifications. First, insoluble PFF were produced by incubation of 300 µM recombinant α-syn in a LoBind reaction tube (Eppendorf GmbH, GE) with one borosilicate glass bead (d = 3.0 mm; Hilgenberg, DE) in 20 mM NaPi, pH 7.0, 150 mM NaCl, 0.05% (w/v) sodium azide for one week at 37 °C. The insoluble PFF were harvested by ultracentrifugation at 100,000 × g for 30 min at 4 °C, and the pellet was washed several times with 20 mM NaPi, pH 7.0, 150 mM NaCl. The monomer equivalent concentration was determined by measuring the α-syn concentration in the supernatant after the first centrifugation and subtracting it from the start concentration for fibrilization. […]
ThT fluorescence progression was measured in a 96-well non-binding half-area plate (Corning, USA) with a FLUOStar platereader (BMG labtech, GE) at λex = 448 nm and λem = 482 nm. […] 10 µM α-syn monomer was incubated with 5, 10 and 20 µM peptide at 37 °C, adding one borosilicate glass bead per well (d = 3.0 mm, Hilgenberg, GE) with continuous orbital shaking at 300 rpm in between reads. […]

For “kgvgnleyqlwalegk-NH2 [negative-control peptide, reference compound]”, the “affinity to monomeric α-syn” value in the series on monomeric α-syn is given as “no affinity to monomeric α-syn”. In series [1], the “cell viability, PFF-seeded α-synA53T–YFP cells” value is given as “did not induce significantly different luminescence in comparison to unseeded cells or seeded cells without peptide treatment”. For the same substance, the aggregate-positive cells in series [2] (25 µM peptide, transfected, then 30 nM small α-syn PFF seeds) was 85%. For the same substance, the “inhibition of intracellular seeded α-syn aggregation” value in series [2] (peptide transfection, then 30 nM PFF seeds) is reported as “not”.
With “ihyawtphtkhmqewe-NH2 [SVD-1_scrambled, reference compound]”, the “cell viability saving effect” value in the series with PC12 cells is reported as “Slight increase of cell viability saving effect”.
As to “ihyawtphtrhlqewerrrrr-NH2 [SVD-1_scrambled+5r, reference compound]”, the “effect of control peptide relative to SVD-1 in seeded assay” value with small α-syn PFF seeds is “improved effects compared to the parental sequence SVD-1 in the seeded assay”.
